According to US11267842B2, “Enzymatic modification of nucleic acids” (The Regents of the University of California, priority 2015, dated 2022):

Key:
[1] = molecular target: T1, bacterial (E.coli) tRNA guanine transglycosylase (TGT) (Escherichia coli, UniProt P0A847); assay: TGT-catalyzed incorporation of PreQ1 analogs into RNA oligonucleotide hairpins (LC / HRMS); format: biochemical
T1 construct: His6 (C); made in house; host or cells: E. coli BL21
Method: General TGT reaction with RNA oligonucleotide hairpins TGT reaction conditions were adapted from a previously reported literature procedure.^1 An eppendorf tube containing 10 μM RNA oligonucleotide, 100 μM PreQ1 analog, and 10 μM TGT enzyme were prepared in a final volume of 50 μL of TGT reaction buffer. The reactions were incubated at 37° C. for a minimum of 2 hours. The reactions were halted by chilling samples to 4° C. or freezing at −80° C. until purified or analyzed.
Liquid chromatography and mass spectroscopy analysis of preQ1 modified RNA hairpins. Samples were first prepared according to the general procedure. Samples were allowed to react for 6 hours and frozen at −80° C. until analyzed (PreQ1-Biotin required 24 hours for completion). Samples were diluted 1:2 with milli-Q water and injected onto a clarity Oligo-MS column (Phenomenex, Torrance, Calif.) and analyzed by HPLC according to the following gradient: (A=Milli-Q water containing 20% hexafluoroisopropanol (HFIP) and 0.1% TEA, B=methanol), Initial conditions 95% A, 5% B, hold 2 min then a linear gradient starting at 2 min and ending at 10 min with 45% A, 55% B. Samples were monitored at 260 nm as well as either 505 nm or 700 nm as appropriate when fluorophore PreQ1 analogs were employed. HRMS samples were collected in negative ion mode and analyzed in a similar manner by combining the mass spectrum traces across the peak of interest. Raw mass spectrum were deconvoluted using MagTran software package v.

streptavidin = molecular target: T2, streptavidin (Streptomyces avidinii, UniProt P22629); assay: Streptavidin gel shift of RNA hairpins modified with PreQ1-Biotin; format: binding; details: ECY-A1 vs ECY-A1ΔC, with and without TGT; 15% denaturing PAGE (FIG. 2C)
T2 construct: purchased Life Technologies
T2 sequence (P22629 25-183): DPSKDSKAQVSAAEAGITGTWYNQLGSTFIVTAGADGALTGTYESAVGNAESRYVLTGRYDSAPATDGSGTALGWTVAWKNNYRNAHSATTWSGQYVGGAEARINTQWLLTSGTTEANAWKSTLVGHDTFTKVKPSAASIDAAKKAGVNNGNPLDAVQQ
Method: Streptavidin gel shift of RNA hairpins. ECY-A1 RNA and ECY-A1ΔC was incubated in a mixture of 10 μM RNA, 100 μM preQ1-Biotin, and 1 μM TGT (omitted in control samples) in TGT reaction buffer at 37° C. for 24 hours. After the reactions were complete, the RNA was precipitated by addition of 10% volume of 3M sodium acetate and 2.5 volumes 95% ethanol and incubation at −20° C. overnight. After centrifugation at 4° C. (16,100 g, 30 min), the resulting RNA pellet was resuspended in water, and the concentration of RNA was quantified. The prepared RNA was then incubated in the presence of streptavidin (Life Technologies, Carlsbad, Calif.) at 37° C. for 1 hour in a mixture containing the following: 10 mM Tris (pH 8.1), 2.5 μM RNA, and 50 μM streptavidin. 1X RNA loading dye (NEB, Ipswitch, Mass.) was added to the sample (without heat denaturation) and samples were analyzed by 15% denaturing PAGE.

[2] = molecular target: T3, streptavidin M-280 DYNABEADS (Streptomyces avidinii, UniProt P22629); assay: DYNABEADS streptavidin pull-down of PreQ1-Biotin modified transcripts; format: binding; details: mCherry-TAG vs mCherry-TAGΔC after TGT labeling (FIGS. 3C and 10)
T3 construct: purchased Life Technologies M280
T3 sequence (P22629 25-183): as above
Method: DYNABEADS® Streptavidin pull-down of PreQ1-Biotin modified transcripts. mCherry-TAG and mCherry-TAGΔC transcripts was incubated in a mixture of 1 μM RNA, 100 μM preQ1-Biotin, and 1 μM TGT (omitted in control samples) in TGT reaction buffer at 37° C. for 4 hours. 1 unit of RNAseIn (Promega, Madison, Wis.) was added to the reaction to prevent transcript degradation. Samples were drop dialyzed through 0.02 μm MF-Millipore membrane filter (Millipore, Billerica, Mass.) using 25 mL Milli-Q water and subsequently ethanol precipitated by addition of 10% volume of 3M sodium acetate and 2.5 volumes 95% ethanol and incubation at […] overnight. After centrifugation at 4° C. (16,100 g, 30 min), the resulting RNA pellet was resuspended in water, and the concentration of RNA was quantified.
Streptavidin M280 DYNABEADS® (Life Technologies, Carlsbad, Calif.) were washed according to manufacturer's instructions for RNA applications using binding and washing (B&W) buffer. Beads were blocked in B&W buffer with yeast tRNA (0.1 mg/100 uL of beads). Following the blocking step, beads were washed twice with B&W buffer. Pull down was then performed by incubation of 1 μg of prepared RNA with 10 uL of washed beads in B&W buffer at room temperature for 30 minutes with constant rotation. The beads were then washed three times with B&W buffer. […] Samples were then analyzed by 4% denaturing PAGE.

[3] = molecular target: T1, bacterial (E.coli) tRNA guanine transglycosylase (TGT); format: biochemical; details: TGT present; 4% denaturing PAGE (FIG. 3A, FIG. 7)
Method: General labeling reaction procedure for fluorescence spectra and gel analysis. A 25 μL reaction was setup in a small eppendorf tube containing 100 nM RNA transcript, 50 μM PreQ1 analog, and 1μM TGT in TGT reaction buffer. 1 unit of RNaseln (Promega, Madison, Wis.) was added to each reaction to prevent degradation of the transcript. The reaction was allowed to proceed for 4 hours, after which the sample was cooled to 4° C. and either used directly or stored at −80° C. until further analyzed.
Gel Analysis of TGT reactions with PreQ1 analogs. […] After the reactions were complete, the RNA was precipitated by addition of 10% volume of 3M sodium acetate and 2.5 volumes 95% ethanol. The samples were then precipitated at −80° C. for 2 hours after which they were centrifuged at 16,100 g for 30 minutes at 4° C. The ethanol was carefully pipetted away and the RNA pellet was allowed to air dry for 10 minutes on the bench. The pellet was resuspended in 10 μL of 1X RNA loading dye (NEB, Ipswitch, Mass.), heated to 95° C. for 2 minutes, placed on ice for 20 minutes, and subsequently loaded into a freshly poured denaturing 4% polyacrylamide gel (4% polyacrylamide in 1X TBE buffer with 8% urea) and run at 120 V for approximately 2 hours until the xylene cyanol blue dye had reached the bottom of the gel. […]

[4] = test system: mCherry-TAG RNA endogenously expressed in CHO cells; assay: Fixed cell labeling of endogenously expressed mCherry-TAG transcript; format: cell-based, Chinese hamster; details: 50 μM PreQ1-Cy7, with TGT and mCherry-TAG plasmid vs controls without (FIG. 4)
Method: Fixed Cell Labeling of Endogenously Expressed mCherry-ECY-A1 Transcript. Chinese Hamster Ovary (CHO) cells (CRL-9606, ATCC, Manassas, Va.) were cultured in Ham's F-12K media (Life Technologies, Carlsbad, Calif.) and kept under 20 passages from the ATCC standard line. CHO cells were plated at an initial density of 10,000 cells per well in a Nunc Lab-Tek 8 well chamber slide (Thermo Scientific, Waltham, Mass.). Cells were allowed to adhere overnight and washed with Opti-MEM media (Life Technologies, Carlsbad, Calif.) and subsequently transfected with […] of mCherry-TAG plasmid per well with 1.5 μL of Lipofectamine® 2000 (Life Technologies, Carlsbad, Calif.) in Opti-MEM as per manufacture's protocol. Control wells lacking transfection were treated and washed with Opti-MEM in the absence of DNA and lipofectamine®. After overnight transfection, the cells were washed twice with PBS (200 μL each) and fixed with 100 μL of a 3.7% paraformaldehyde in PBS solution for 10 minutes at room temperature. Cells were then permeabilized by treatment with 100 μL of 0.1% Triton X-100 in PBS for 20 minutes at room temperature and washed 2×200 μL with fresh PBS. Cells were then treated for four hours at 37° C. with 100 μL of TGT reaction buffer containing 50 μM PreQ1-Cy7 either with or without 10 μM TGT enzyme added. […] Images were subsequently analyzed and processed using ImageJ (NIH, rsbweb.nih.gov).

[5] = molecular target: T1, bacterial (E.coli) tRNA guanine transglycosylase (TGT); assay: Fluorescence emission spectra of PreQ1-TO probe turn-on with ECY-A1 hairpin; format: biochemical; details: RNA hairpin ECY-A1; normalized to PreQ1-TO in the absence of RNA and TGT (FIG. 2B)
Method: Fluorescence emission spectra of PreQ1-TO probe turn-on with ECY-A1 hairpin. Samples of ECY-A1, ECY-A1ΔC, and ECY-X1 were first prepared in a similar fashion to the general protocol except only 20 μM PreQ1-TO was employed to avoid non-specific binding to the hairpins. Samples were allowed to react for 2 hours, verified to be at completion by HPLC, and diluted 30-fold into TGT reaction buffer. Spectra were then collected on a Fluoromax-P spectrophotometer by excitation at 501 nm and scanning emission from 510 to 600 nm with excitation and emission slit width at 5 nm and an integration time of 1 s. All spectra were background subtracted from TGT reaction buffer and Normalized against the fluorescence intensity values of a sample containing an analogous concentration of PreQ1-TO (0.667 μM) in TGT reaction buffer.

[6] = molecular target: T1, bacterial (E.coli) tRNA guanine transglycosylase (TGT); assay: Fluorescence emission spectra of PreQ1-TO probe turn-on with mCherry-TAG RNA; format: biochemical
Method: Fluorescence emission spectra of PreQ1-TO probe turn-on with mCherry-TAG RNA. Fluorescence emission spectra were collected in a similar fashion to that described previously for the short RNA hairpins. 25 μL reactions were setup with 10 μM TGT enzyme, 20 μM PreQ1-TO, and 100 nM transcript RNA and incubated at 37° C. for 2 hours. Samples were then diluted 30-fold and measured under the same conditions and parameters as that of the short hairpins.

T1 sequence (P0A847 whole entry, added parts left off): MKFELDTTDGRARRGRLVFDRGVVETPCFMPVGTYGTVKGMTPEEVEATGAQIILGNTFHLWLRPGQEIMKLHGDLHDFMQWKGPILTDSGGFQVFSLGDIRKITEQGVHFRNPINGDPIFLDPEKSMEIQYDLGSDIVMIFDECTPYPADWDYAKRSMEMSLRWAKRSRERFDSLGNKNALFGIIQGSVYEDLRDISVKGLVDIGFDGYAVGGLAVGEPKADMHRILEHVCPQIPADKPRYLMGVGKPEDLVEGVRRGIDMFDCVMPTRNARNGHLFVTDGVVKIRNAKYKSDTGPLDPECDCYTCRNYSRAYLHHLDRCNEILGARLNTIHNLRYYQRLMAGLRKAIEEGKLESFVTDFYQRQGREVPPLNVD

## Nc1nc2[nH]cc(CNCCOCCOCCOCCNC(=O)CCCC[C@@H]3SC[C@@H]4NC(=O)N[C@@H]43)c2c(=O)[nH]1 [PreQ1-Biotin]
[1]; 37° C., other analogs 6 hour incubation
  reaction time required for completion of TGT labeling of ECY-A1: 24 h
streptavidin
  streptavidin gel shift of ECY-A1 modified by TGT: biotin remains functional as an affinity tag
[2]
  RNA recovered in streptavidin pull-down: single RNA band corresponding to transcript only when mCherry transcript contained the ECY-A 1 hairpin

## CN1/C(=C/C=C2C=C(/C=C/C3=[N+](CCCCCC(=O)NCCOCCOCCOCCNCc4c[nH]c5nc(N)[nH]c(=O)c45)c4ccccc4C3(C)C)CCC/2)C(C)(C)c2ccccc21.O=C[O-] [PreQ1-Cy7]
[3]
  fluorescent labeling of mCherry-TAG transcript: labeling of the transcript took place
[4]
  staining of fixed, permeabilized CHO cells: significantly greater staining of fixed cells

## CN1/C(=C/c2cc[n+](CCCCCC(=O)NCCOCCOCCOCCNCc3c[nH]c4nc(N)[nH]c(=O)c34)c3ccccc23)Sc2ccccc21.O=C[O-] [PreQ1-TO]
[1]; ECY-A1 compared with ECY-A1ΔC and ECY-X1 (FIG. 20B)
  RNA substrate selectivity of incorporation: selectively incorporated into ECY-A1
[1]; RNA hairpins ECY-A1ΔC and ECY-X1, with TGT, by LC/MS
  incorporation of PreQ1-TO into alternative RNA hairpins: unable to detect incorporation
[5]
  increase in TO fluorescence intensity upon covalent incorporation: ~40 fold
[6]; TGT present vs absent (FIG. 3B)
  fluorescence intensity with in vitro transcribed mCherry-TAG RNA: significant increase in fluorescence intensity
[6]; in the presence of enzyme
  fluorescence turn-on with mCherry-TAGΔC transcript: negligible fluorescence turn-on
